Test system: panel of 22 biotinylated chemokines
Test: Saturation (NNK) mutagenesis phage-display selection against biotinylated chemokines, enrichment by NGS
Type: binding, human
Settings: two-sided Dunnett's test; for log2E compared to parental HD2, CXnC chemokines: 7 CXnC chemokines
Text: 81-mer mutant oligonucleotides replacing NNK at each of the 16 peptide encoding residues were designed with the sequence arms 5’-[…], and […]-3’ at respective ends to enable amplification and cloning. Oligonucleotides (Genscript) were individually amplified and cloned into plasmid prSTOP4Nsi (described in[37]). prSTOP4Nsi was amplified using primers (Sigma): […]
Oligonucleotides were amplified using primers (Sigma): oligo_fwd: 5’-[…] and oligo_rev2: 5’-[…]. The PCR products were cloned into prSTOP4Nsi plasmid using NEB Builder HiFi Assembly (E5520, NEB) following instructions of the manufacturer. The vector pool was used to transform electrocompetent ElectroMAX™ DH5α-E™ cells (11319019, Invitrogen). Plasmid DNA was harvested by MaxiPrep (GeneJet Plasmid Maxiprep Kit (K0491, Thermo Scientific)). DNA was transformed into SS320 phage display electrocompetent cells (60512, Lucigen), following the manufacturer’s protocol. Following electroporation, cells were resuspended in 950 μL recovery media and transferred to 50 mL Falcon tubes. 100 μL 10^11 CFU/mL M13KO7 helper phage (N0315S, NEB) was added, and tubes shaken at 37 °C, 220 RPM, 1 h. 1 mL recovery culture was added to 2YT medium containing +50ug/mL carbenicillin (C9231, Sigma) and 25ug/mL kanamycin (K1377, Sigma), and grown overnight at 37 °C, 220 RPM. Phage was precipitated from culture supernatant by adding 22.5 mL of supernatant to 4.5 mL 20% PEG 8000 (89510, Sigma)/2.5 M NaCl (S9625, Sigma), incubating on ice for 30 min, and centrifuging at 12857 g, 4 °C, 10 min. The phage pellet was resuspended in 1 mL of PBT (PBS (P4417, Sigma), BSA (A7030, Sigma) 0.20%, Tween 20 (P1379, Sigma) 0.05%). Undissolved particulate matter was removed by centrifugation at 15871 g, 4 °C, 10 min. Glycerol (G5516, Sigma, 10% final (v/v) was added, and aliquots stored at −80 °C. A schematic of phage-display library construction is provided in Supplementary Fig. 12.
Phage display screening was performed as described. Experiments were performed in 96-well plates (Greiner Bio-One, 655180). Biotinylated chemokines or complement C5A (1μg, Almac or Protein Foundry) were incubated overnight at 4 °C with shaking at 250 RPM with 5μl streptavidin-coated magnetic beads (Dynabeads™ M-280 Streptavidin, Invitrogen, 11205D) in 100 μl PBS. Chemokine-bound beads were blocked for two hours in 200μl blocking buffer (PBS (phosphate-buffered saline, Sigma, P4417) + 0.2% BSA (bovine serum albumin, Sigma, A7030) with shaking at 250 RPM. Phage library (100μL, 10^10 CFU/mL) was bound to blocked beads for two hours at room temperature with shaking at 250 RPM. Beads were washed 15 times with PT buffer (PBS + 0.05% Tween 20 (Sigma, P1379)) to remove unbound phage then transferred to a fresh plate. Beads were incubated with 100μL phage-resistant Omnimax E. coli (Invitrogen, A10469) at optical density (OD600) 0.6-0.8, shaken at 37 °C for 30 min. Following this 10 µL M13K07 helper phage (NEB, N0315S, final concentration 10^10 CFU/mL) was added and shaken at 37 °C for 45 min. Cells were transferred to 1 mL 2YT medium (at pH7, MP Biomedicals™, 113012031, supplemented with 150 µg/mL carbenicillin (Sigma, C9231) and 75 µg/mL kanamycin (Sigma, K1377) in a 96-deep well block with V-bottom (Corning, CLS3960) and grown with overnight shaking at 37 °C, 200 RPM. Plates were either centrifuged at 2000g (4 °C, 30 min) or transferred to screw cap tubes and pelleted by centrifugation at 4000 g and 4 °C for 15 min. 540 µL of supernatant was transferred to a new 96-deep well plate, 60 µL of 10×PBT (10×PBS + 2% BSA + 0.5% Tween 20) added and stored at 4 °C for subsequent rounds. Phage display was carried out for three rounds. A schematic of phage-display library screening is provided in Supplementary Fig. 12.
We amplified inserts from the input library and from the selected phage population directly from phage by PCR using primers: 5’-[…] and 5’-[…] (Life Technologies). […]

Row | Sequence | log2E compared to parental HD2, CXnC chemokines | log2E compared to parental HD2, all chemokines (three selection rounds, 22 chemokines)
1 | EEDDWTAYAPLTCYFT [HD2Y5W, HD2 point mutant] | significant improvement | –
2 | EEDDYWAYAPLTCYFT [HD2T6W, HD2 point mutant] | significant improvement | significantly improved
